# Source: ChEMBL document CHEMBL1127995, “Synthesis and structure-activity relationships of pyrrolidine-modified analogs of the potent cholinergic channel activator, ABT 418” (Bioorg Med Chem Lett, 1994)
# Experiments:
# [1] = In vitro half life was determined; format: ADME
# [2] = target: Neuronal acetylcholine receptor; alpha4/beta2 (Rattus norvegicus, UniProt P09483+P12390); assay: Binding affinity for Nicotinic acetylcholine receptor alpha4-beta2 by displacement of [3H](-)-cytisine from whole rat brain membranes; format: cell membranes, Membrane
# Sequence of Neuronal acetylcholine receptor; alpha4/beta2 (P09483 whole entry): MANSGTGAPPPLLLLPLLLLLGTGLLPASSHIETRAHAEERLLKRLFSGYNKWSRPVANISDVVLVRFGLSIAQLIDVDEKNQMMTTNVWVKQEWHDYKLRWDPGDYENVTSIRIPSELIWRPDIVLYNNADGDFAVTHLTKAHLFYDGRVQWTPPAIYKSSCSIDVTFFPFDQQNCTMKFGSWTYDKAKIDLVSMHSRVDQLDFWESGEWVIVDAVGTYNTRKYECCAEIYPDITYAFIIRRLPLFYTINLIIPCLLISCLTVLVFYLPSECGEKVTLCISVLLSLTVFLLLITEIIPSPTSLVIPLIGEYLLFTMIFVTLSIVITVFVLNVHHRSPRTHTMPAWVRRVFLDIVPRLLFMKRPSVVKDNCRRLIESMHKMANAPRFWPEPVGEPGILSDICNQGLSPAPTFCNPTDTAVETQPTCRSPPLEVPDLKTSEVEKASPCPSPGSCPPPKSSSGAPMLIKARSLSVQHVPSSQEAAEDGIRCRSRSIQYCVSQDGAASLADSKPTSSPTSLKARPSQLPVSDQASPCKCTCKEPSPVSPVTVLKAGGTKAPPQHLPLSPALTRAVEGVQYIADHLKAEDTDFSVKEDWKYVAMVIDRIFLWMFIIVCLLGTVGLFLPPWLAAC
# Sequence of Neuronal acetylcholine receptor; alpha4/beta2 (P12390 whole entry): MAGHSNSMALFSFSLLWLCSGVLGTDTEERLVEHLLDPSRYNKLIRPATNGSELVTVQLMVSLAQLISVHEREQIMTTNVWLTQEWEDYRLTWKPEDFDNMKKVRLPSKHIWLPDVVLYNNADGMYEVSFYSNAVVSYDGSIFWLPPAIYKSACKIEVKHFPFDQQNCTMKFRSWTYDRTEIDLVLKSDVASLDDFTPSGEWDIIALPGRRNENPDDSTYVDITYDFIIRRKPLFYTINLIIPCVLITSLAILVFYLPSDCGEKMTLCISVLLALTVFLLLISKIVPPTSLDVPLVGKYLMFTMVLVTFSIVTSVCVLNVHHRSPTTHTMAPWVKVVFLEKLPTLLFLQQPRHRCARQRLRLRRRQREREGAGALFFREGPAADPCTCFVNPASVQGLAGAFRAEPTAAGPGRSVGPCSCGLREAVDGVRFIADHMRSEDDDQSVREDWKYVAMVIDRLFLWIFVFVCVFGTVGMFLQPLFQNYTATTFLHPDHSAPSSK
Structure (SMILES),half-life [1] [min],Ki [2] [µM]
Cc1cc([C@@H]2CC[C@@H](C)N2C)on1,26,0.071
"Cc1cc([C@@H]2C(COC(=S)Oc3ccccc3)CCN2C)on1 (single isomer, unassigned)",–,0.84
Cc1cc([C@@H]2[C@@H](CO)CCN2C)on1,–,> 10
Cc1cc([C@@H]2CC[C@H](C)N2C)on1,48.3,5
COC(=O)CC1CC[C@@H](c2cc(C)no2)N1C (some centres undefined),–,3.5
Cc1cc([C@@H]2CC[C@@H](c3ccccc3)N2C)on1,–,8
CCCC[C@H]1CC[C@@H](c2cc(C)no2)N1C,–,3.67
"Cc1cc([C@@H]2C(C)CCN2C)on1 (single isomer, unassigned)",–,> 10
Cc1cc([C@@H]2CCCN2C)on1 [ABT-418],47.3,0.003
Cc1cc([C@@H]2CC[C@H](c3ccccc3)N2C)on1,–,> 10
CCCC[C@@H]1CC[C@@H](c2cc(C)no2)N1C,–,1.02
